Source: patent US6348614B1 (priority 1996, dated 2002)

tested on: Phytophthora infestans; assay: not given; format: in vivo; settings: potato, 2000 ppm, 3 days after inoculation

Row | Compound | Control Efficacy % [%]
1 | N-β-methylbenzoyl-1-aminobutyric acid-1-methyl-1-pentyl ester [Example 10] | 100
2 | CC(CC(=O)OCCCl)NC(=O)c1ccccc1 (racemic) [Example 11, DL-N-benzoyl-3-aminobutyric acid 2-chloroethyl ester] | 95
3 | CCC(C)OC(=O)CC(C)NS(=O)(=O)c1ccccc1 (centres unmarked) [Example 8, N-benzenesulfonyl-3-aminobutyric acid-sec butyl ester] | 100
4 | CCCCCCCCOC(=O)CC(C)NS(=O)(=O)c1ccccc1 (racemic) [Example 7, DL-N-benzenesulfonyl-3-aminobutyric acid n-octyl ester] | 100
5 | CCCC(C)OC(=O)CC(C)NS(=O)(=O)c1ccccc1 (centres unmarked) [Example 9, N-benzenesulfonyl-3-aminobutyric acid 1-methyl-1-butyl ester] | 99

same assay, conditions: potato, 2000 ppm, 4 days after inoculation

Row | Compound | Control Efficacy % [%]
6 | N-β-methylbenzoyl-1-aminobutyric acid-1-methyl-1-pentyl ester [Example 10] | 100
7 | CC(CC(=O)OCCCl)NC(=O)c1ccccc1 (racemic) [Example 11, DL-N-benzoyl-3-aminobutyric acid 2-chloroethyl ester] | 92
8 | CCC(C)OC(=O)CC(C)NS(=O)(=O)c1ccccc1 (centres unmarked) [Example 8, N-benzenesulfonyl-3-aminobutyric acid-sec butyl ester] | 92
9 | CCCCCCCCOC(=O)CC(C)NS(=O)(=O)c1ccccc1 (racemic) [Example 7, DL-N-benzenesulfonyl-3-aminobutyric acid n-octyl ester] | 100
10 | CCCC(C)OC(=O)CC(C)NS(=O)(=O)c1ccccc1 (centres unmarked) [Example 9, N-benzenesulfonyl-3-aminobutyric acid 1-methyl-1-butyl ester] | 97

same assay, conditions: potato, 2000 ppm, 6 days after inoculation

Row | Compound | Control Efficacy % [%]
11 | N-β-methylbenzoyl-1-aminobutyric acid-1-methyl-1-pentyl ester [Example 10] | 97
12 | CC(CC(=O)OCCCl)NC(=O)c1ccccc1 (racemic) [Example 11, DL-N-benzoyl-3-aminobutyric acid 2-chloroethyl ester] | 82
13 | CCC(C)OC(=O)CC(C)NS(=O)(=O)c1ccccc1 (centres unmarked) [Example 8, N-benzenesulfonyl-3-aminobutyric acid-sec butyl ester] | 87
14 | CCCCCCCCOC(=O)CC(C)NS(=O)(=O)c1ccccc1 (racemic) [Example 7, DL-N-benzenesulfonyl-3-aminobutyric acid n-octyl ester] | 82
15 | CCCC(C)OC(=O)CC(C)NS(=O)(=O)c1ccccc1 (centres unmarked) [Example 9, N-benzenesulfonyl-3-aminobutyric acid 1-methyl-1-butyl ester] | 82

same assay, conditions: potato, 2000 ppm, 8 days after inoculation

Row | Compound | Control Efficacy % [%]
16 | N-β-methylbenzoyl-1-aminobutyric acid-1-methyl-1-pentyl ester [Example 10] | 87
17 | CC(CC(=O)OCCCl)NC(=O)c1ccccc1 (racemic) [Example 11, DL-N-benzoyl-3-aminobutyric acid 2-chloroethyl ester] | 70
18 | CCC(C)OC(=O)CC(C)NS(=O)(=O)c1ccccc1 (centres unmarked) [Example 8, N-benzenesulfonyl-3-aminobutyric acid-sec butyl ester] | 50
19 | CCCCCCCCOC(=O)CC(C)NS(=O)(=O)c1ccccc1 (racemic) [Example 7, DL-N-benzenesulfonyl-3-aminobutyric acid n-octyl ester] | 77
20 | CCCC(C)OC(=O)CC(C)NS(=O)(=O)c1ccccc1 (centres unmarked) [Example 9, N-benzenesulfonyl-3-aminobutyric acid 1-methyl-1-butyl ester] | 62

tested on: Erysiphe graminis tritici; assay: Powdery mildew in wheat, additional examples (Table 6); format: in vivo; settings: 500 ppm, 7 days after inoculation
Protocol: Wheat plants (cv.Shafir) were raised from seed in the greenhouse, 30 plants per 0.2 liter pot. When the first leaf was fully developed plants were sprayed with the test solutions and placed in a 20° C. growth cabinet. Two days after spraying plants were dusted with conidia of E. graminis tritict so that about 100 spores were settled on 1 cm^2 of leaf area (both surfaces). […] Control efficacy was calculated relative to number of colonies developed on the control-inoculated untreated plants.

Row | Compound | Control efficacy (%) 7d [%]
21 | CCCCCCCCCC(C)OC(=O)CC(C)NC(=O)c1ccc(C)cc1 (centres unmarked) [compound 44, D,L N-4-methylbenzoyl-3-aminobutyric acid 1-methyldecanyl ester] | 74
22 | CCCCCCCOC(=O)CC(C)NC(=O)c1ccc(C)c(C)c1 (centres unmarked) [compound 45, D,L N-3,4-dimethylbezoyl-3-aminobutyric acid heptyl ester] | 71
23 | CCCCCCCCOC(=O)CC(C)NC(=O)c1ccc(C)c(C)c1 (centres unmarked) [compound 54, D,L N-3,4-dimethylbenzoyl-3-aminobutyric acid octyl ester] | 69
24 | CCCOC(=O)CC(C)NS(=O)(=O)c1ccccc1 (centres unmarked) [compound 41, D,L N— benzenesulfonyl-3-aminobutyric acid propyl ester] | 77
25 | CC(CC(=O)Oc1cc(Cl)cc(Cl)c1)NS(=O)(=O)c1ccccc1 (centres unmarked) [compound 53, D,L N-benzensulfonyl-3-aminobutyric acid 3,5-dichlorophenyl ester] | 100
26 | CCCCC(C)OC(=O)CC(C)NS(=O)(=O)c1ccc(Cl)cc1 (centres unmarked) [compound 50, D,L N-4-chlorobenzensulfonyl-3-aminobutyric acid 1-methylpentyl ester] | 92
27 | CNc1ccccc1C(=O)NC(C)CC(=O)OC (centres unmarked) [compound 47, D,L N-2-methylaminobenzoyl-3-aminobutyric acid methyl ester.] | 81
28 | CCCCC(C)OC(=O)CC(C)NC(=O)c1ccc(C)cc1 (centres unmarked) [compound 46, D,L N-4-methylbezoyl-3-aminobutyric acid 1-methylpentyl ester] | 69
29 | CCCCCCCOC(=O)CC(C)NC(=O)c1cc(C)cc(C)c1 (centres unmarked) [compound 13, D,L N-3,5-dimethylbezoyl-3-aminobutyric acid heptyl ester] | 72
30 | CCCCCC(C)OC(=O)CC(C)NC(=O)c1ccc(C)cc1 (centres unmarked) [compound 43, D,L N-4-methylbenzoyl-3-aminobutyric acid 1-methylhexyl ester] | 75
31 | CCCCC(C)OC(=O)CC(C)NS(=O)(=O)c1ccc(C)cc1 (centres unmarked) [compound 16, D,L N-4-methylbenzenesulfonyl-3-aminobutyric acid i-methylpentyl ester] | 83
32 | CCCCCCCOC(=O)CC(C)NC(=O)c1ccccc1C (centres unmarked) [compound 32, D,L N-2-methylbezoyl-3-aminobutyric acid heptyl ester] | 83
33 | C=CCOC(=O)CC(C)NC(=O)c1ccccc1 (centres unmarked) [compound 42, N-benzoyl-3-aminobutyric acid-2 propenyl ester] | 77
34 | CCCCCCCOC(=O)CC(C)NC(=O)c1ccc(OC)cc1 (centres unmarked) [compound 12, D,L N-4-methoxybenzoyl-3-aminobutyric acid heptyl ester] | 85

tested on: Plasmopara viticola; assay: Downy mildew in grapes (Table 9); format: in vivo; settings: 500 ppm, 10 days after inoculation
Protocol: Two days after spraying plants were inoculated with sporangial suspension of P.viticola ([…]) onto their lower leaf surface and placed in 100% relative humidity for 20 hr. The plants were then placed in a growth cabinets 20° C. for 10 days. Disease development was assessed according to the abaxial leaf surfaces area covered with fungal sporulation.

Row | Compound | Control efficacy % 10d [%]
35 | CCCCCCCOC(=O)CC(C)NC(=O)c1c(Cl)cccc1Cl (centres unmarked) [compound 24, D,L N-2,6-dichlorobenzoyl-3-aminobutyric acid heptyl ester] | 100
36 | CCCCC(C)OC(=O)CC(C)NC(=O)c1cc(C)cc(C)c1 (centres unmarked) [compound 23, D,L N-3,5-dimethylbezoyl-3-aminobutyric acid 1-methylpentyl ester] | 100
37 | CC(CC(=O)OCCCc1ccccc1)NS(=O)(=O)c1ccccc1 (centres unmarked) [compound 17, D,L N-benzenesulfonyl-3-aminobutyric acid 3-phenylpropyl ester] | 97
38 | CC(CC(=O)OCCCc1ccccc1)NS(=O)(=O)c1ccccc1 (centres unmarked) [compound 51, D,L N-benzensulphonyl-3-aminobutyric acid 3-phenylpropyl ester] | 97
39 | CCCCCCCOC(=O)CC(C)NC(=O)c1ccc(Cl)cc1 (centres unmarked) [compound 30, D,L N-4-cholrobenzoyl-3-aminobutyric acid heptyl ester] | 91
40 | Cc1ccc(C(=O)NC(C)CC(=O)OCCCc2ccccc2)cc1 (centres unmarked) [compound 26, D,L N-4-methylbenzoyl-3-aminobutyric acid 3-phenylpropyl ester] | 99
41 | CCC(C)OC(=O)CC(C)NS(=O)(=O)c1ccc(C)cc1 (centres unmarked) [compound 20, D,L N-4-methylbenzenesulfonyl-3-aminobutyric 1-methylpropyll ester] | 100
42 | CCCCCCCOC(=O)CC(C)NC(=O)c1c(F)cccc1F (centres unmarked) [compound 14, D,L N-2,6-difluorobenzoyl-3-aminobutyric acid heptyl ester] | 100
43 | COCC(C)OC(=O)CC(C)NS(=O)(=O)c1ccccc1 (centres unmarked) [compound 31, D,L N-benzenesulfonyl-3-aminobutyric acid 1-methyl-2-methoxyethyl ester] | 82
44 | CCCCC(C)OC(=O)CC(C)NS(=O)(=O)c1ccc(C)cc1 (centres unmarked) [compound 16, D,L N-4-methylbenzenesulfonyl-3-aminobutyric acid i-methylpentyl ester] | 100
45 | COc1ccc(C(=O)NC(C)CC(=O)OCCCl)cc1 (centres unmarked) [compound 28, D,L N-4-methoxybenzoyl-3-aminobutyric acid 2-chloroethyl ester] | 91

tested on: Pseudoperonospora cubensis; assay: Downy mildew in melon (Table 7); settings: 500 ppm, 7 days after inoculation
Protocol: Cucumber plants (cv,Dlila) and melon plants (cv.Ein Dor) were raised from seeds in 0.2 liter pots in the greenhouse. At 3 weeks after sowing when had 3 true leaves they were inoculated with sporangial suspension (1000 sporangia/ml) of P.cubensis (resistant to metalaxyl) and placed in 100% relative humidity in the dark for 20 hr. They were then place in a 20° C. growth cabinet for 7 days and assessed for disease development. Percentage leaf area covered with disease symptoms was evaluated and control efficacy was calculated relative to control inoculated plants.

Row | Compound | Control efficacy % 7 days [%]
46 | CCCCC(C)OC(=O)CC(C)NC(=O)c1cc(C)cc(C)c1 (centres unmarked) [compound 23, D,L N-3,5-dimethylbezoyl-3-aminobutyric acid 1-methylpentyl ester] | 73
47 | CCCCCCCOC(=O)CC(C)NC(=O)c1cccc(C)c1 (centres unmarked) [compound 22, D,L N-3-methylbezoyl-3-aminobutyric acid heptyl ester] | 83
48 | CC(CC(=O)OCCCc1ccccc1)NS(=O)(=O)c1ccccc1 (centres unmarked) [compound 17, D,L N-benzenesulfonyl-3-aminobutyric acid 3-phenylpropyl ester] | 87
49 | CC(CC(=O)OCCCc1ccccc1)NS(=O)(=O)c1ccccc1 (centres unmarked) [compound 51, D,L N-benzensulphonyl-3-aminobutyric acid 3-phenylpropyl ester] | 87
50 | CCCCCCCOC(=O)CC(C)NS(=O)(=O)c1ccc(C)cc1 (centres unmarked) [compound 34, D,L N-4-methylbenzenesulfonyl-3-aminobutyric acid heptyl ester] | 70
51 | Cc1ccc(S(=O)(=O)NC(C)CC(=O)OCCBr)cc1 (centres unmarked) [compound 33, D,L N-4-methylbenzenesulfonyl-3-aminobutyric acid 2-bromoethyl ester] | 75
52 | CCCCCCCOC(=O)CC(C)NC(=O)c1ccccc1C (centres unmarked) [compound 32, D,L N-2-methylbezoyl-3-aminobutyric acid heptyl ester] | 77
53 | CCCCCCCOC(=O)CC(C)NC(=O)c1ccc(OC)cc1 (centres unmarked) [compound 12, D,L N-4-methoxybenzoyl-3-aminobutyric acid heptyl ester] | 100
